From patent US20220249441A1, “Homodimeric Tobramycin Adjuvant Repurposes Novobiocin as an Effective Antibacterial Agent Against Gram-Negative Bacteria” (priority 2019, published 2022)

Tests used:
[1] = test system: P. aeruginosa; assay: Checkerboard assay (antibiotic + adjuvant combination MIC); format: cell-based, Pseudomonas aeruginosa
Protocol: Antimicrobial Susceptibility Assay. The in vitro antimicrobial activity of all compounds/antibiotics against a panel of bacteria was evaluated by microbroth dilution method in accordance with the Clinical and Laboratory Standards Institute (CLSI) guidelines (using ATCC strains as quality control strains) (54). Overnight grown bacterial cultures were diluted in saline to achieve a 0.5 McFarland turbidity, followed by 1:50 dilution in Mueller-Hinton broth (MHB) for inoculation to a final concentration of approximately 5×10^5 CFU/mL. […] The lowest concentration that prevented the visible growth of bacteria was defined as the MIC for each antimicrobial agent. The broth with or without bacterial cells was used as positive or negative control, respectively.
Checkerboard Assay. Combination studies with different antibiotics were performed in 96-well plates as previously described (19). Briefly, the antibiotic of interest was serially diluted in MHB along the abscissa while the adjuvant (tobramycin homodimer) was serially diluted in MHB along the ordinate. This creates a 10×7 matrices wherein each well consists of a combination of different antibiotic and adjuvant concentrations. Overnight grown bacterial cultures were diluted in saline to achieve a 0.5 McFarland turbidity, followed by 1:50 dilution in Mueller-Hinton broth (MHB) for inoculation to a final concentration of approximately 5×10^5 CFU/mL. […] MIC was recorded as wells with the lowest concentration of drugs with no bacterial growth. The fractional inhibitory concentration (FIC) for each antibiotic was calculated by dividing the MIC of the antibiotic in the presence of adjuvant by the MIC of the antibiotic alone. Similarly, the FIC of adjuvant was calculated by dividing the MIC of the adjuvant in the presence of antibiotic by the MIC of the adjuvant alone. FIC index is the sum of both FICs. FIC indices of ≤0.5 were deemed synergistic; >0.5-4, no interaction; and >4, antagonistic.

[2] = test system: P. aeruginosa PAO1 and efflux deficient mutants, MDR/XDR isolates; assay: microbe, parasite or virus in culture; format: cell-based, Pseudomonas aeruginosa
Protocol: Antimicrobial Susceptibility Assay. The in vitro antimicrobial activity of all compounds/antibiotics against a panel of bacteria was evaluated by microbroth dilution method in accordance with the Clinical and Laboratory Standards Institute (CLSI) guidelines (using ATCC strains as quality control strains) (54). […] The broth with or without bacterial cells was used as positive or negative control, respectively.

[3] = P. aeruginosa PAO1, compound at 8 μM
[4] = PA 262-101856, compound at 8 μM
[5] = PA 264-104354, compound at 8 μM
[6] = PA O200 (efflux-deficient), compound at 8 μM
[7] = PA O750 (efflux-deficient), compound at 8 μM

NC[C@H]1O[C@H](O[C@H]2[C@H](OCCCCc3cn(CCCCO[C@@H]4[C@@H](O[C@H]5O[C@H](CO)[C@@H](O)[C@H](N)[C@H]5O)[C@H](N)C[C@H](N)[C@H]4O[C@H]4O[C@H](CN)[C@@H](O)C[C@H]4N)nn3)[C@@H](O[C@H]3O[C@H](CO)[C@@H](O)[C@H](N)[C@H]3O)[C@H](N)C[C@@H]2N)[C@H](N)C[C@@H]1O.O=C(O)C(F)(F)F.O=C(O)C(F)(F)F.O=C(O)C(F)(F)F.O=C(O)C(F)(F)F.O=C(O)C(F)(F)F.O=C(O)C(F)(F)F.O=C(O)C(F)(F)F.O=C(O)C(F)(F)F.O=C(O)C(F)(F)F.O=C(O)C(F)(F)F [Compound 23, Tobramycin homodimer]
MIC of Aztreonam + compound [1, 3]: 0.25 µg/mL | MIC of Ceftazidime + compound [1, 3]: 0.25 µg/mL | MIC of Imipenem + compound [1, 3]: 1 µg/mL | MIC of Piperacillin + compound [1, 3]: 0.5 µg/mL | MIC of ATM in the presence of compound ([1]; PA 259-96918, compound at 8 μM): 8 µg/mL | MIC of CAZ in the presence of compound ([1]; PA 259-96918, compound at 8 μM): 128 µg/mL | MIC of IPM in the presence of compound ([1]; PA 259-96918, compound at 8 μM): 32 µg/mL | MIC of ATM in the presence of compound ([1]; PA 260-97103, compound at 8 μM): 16 µg/mL | MIC of CAZ in the presence of compound ([1]; PA 260-97103, compound at 8 μM): 8 µg/mL | MIC of IPM in the presence of compound ([1]; PA 260-97103, compound at 8 μM): 16 µg/mL | MIC of ATM in the presence of compound [1, 4]: 8 µg/mL | MIC of CAZ in the presence of compound [1, 4]: 2 µg/mL | MIC of IPM in the presence of compound [1, 4]: 2 µg/mL | MIC of ATM in the presence of compound [1, 5]: 8 µg/mL | MIC of CAZ in the presence of compound [1, 5]: 32 µg/mL | MIC of IPM in the presence of compound [1, 5]: 4 µg/mL | MIC of ATM in the presence of compound ([1]; PA 86052, compound at 8 μM): 8 µg/mL | MIC of CAZ in the presence of compound ([1]; PA 86052, compound at 8 μM): 64 µg/mL | MIC of IPM in the presence of compound ([1]; PA 86052, compound at 8 μM): 16 µg/mL | MIC of ATM in the presence of compound ([1]; PA 88949, compound at 8 μM): 32 µg/mL | MIC of CAZ in the presence of compound ([1]; PA 88949, compound at 8 μM): 16 µg/mL | MIC of IPM in the presence of compound ([1]; PA 88949, compound at 8 μM): 4 µg/mL | MIC of ATM in the presence of compound ([1]; PA 91433, compound at 8 μM): 4 µg/mL | MIC of CAZ in the presence of compound ([1]; PA 91433, compound at 8 μM): 1 µg/mL | MIC of IPM in the presence of compound ([1]; PA 91433, compound at 8 μM): 4 µg/mL | MIC of ATM in the presence of compound ([1]; PA 100036, compound at 8 μM): 2 µg/mL | MIC of CAZ in the presence of compound ([1]; PA 100036, compound at 8 μM): 2 µg/mL | MIC of IPM in the presence of compound ([1]; PA 100036, compound at 8 μM): 4 µg/mL | MIC of ATM in the presence of compound ([1]; PA 101243, compound at 8 μM): 16 µg/mL | MIC of CAZ in the presence of compound ([1]; PA 101243, compound at 8 μM): 64 µg/mL | MIC of IPM in the presence of compound ([1]; PA 101243, compound at 8 μM): 8 µg/mL | MIC of ATM in the presence of compound ([1]; PA 101885, compound at 8 μM): 4 µg/mL | MIC of CAZ in the presence of compound ([1]; PA 101885, compound at 8 μM): 2 µg/mL | MIC of IPM in the presence of compound ([1]; PA 101885, compound at 8 μM): 4 µg/mL | MIC of ATM in the presence of compound ([1]; PA 107092, compound at 8 μM): 16 µg/mL | MIC of CAZ in the presence of compound ([1]; PA 107092, compound at 8 μM): 32 µg/mL | MIC of IPM in the presence of compound ([1]; PA 107092, compound at 8 μM): 16 µg/mL | MIC of ATM in the presence of compound ([1]; PA 108590, compound at 8 μM): 8 µg/mL | MIC of CAZ in the presence of compound ([1]; PA 108590, compound at 8 μM): 8 µg/mL | MIC of IPM in the presence of compound ([1]; PA 108590, compound at 8 μM): 4 µg/mL | MIC of ATM in the presence of compound ([1]; PA 109084, compound at 8 μM): 8 µg/mL | MIC of CAZ in the presence of compound ([1]; PA 109084, compound at 8 μM): 32 µg/mL | MIC of IPM in the presence of compound ([1]; PA 109084, compound at 8 μM): 8 µg/mL | MIC of ATM in the presence of compound ([1]; PA 114228, compound at 8 μM): 4 µg/mL | MIC of CAZ in the presence of compound ([1]; PA 114228, compound at 8 μM): 1 µg/mL | MIC of IPM in the presence of compound ([1]; PA 114228, compound at 8 μM): 0.5 µg/mL | MIC of ATM in the presence of compound [1, 6]: 0.03 µg/mL | MIC of CAZ in the presence of compound [1, 6]: 0.13 µg/mL | MIC of IPM in the presence of compound [1, 6]: 1 µg/mL | MIC of ATM in the presence of compound [1, 7]: 0.06 µg/mL | MIC of CAZ in the presence of compound [1, 7]: 0.06 µg/mL | MIC of IPM in the presence of compound [1, 7]: 1 µg/mL | MIC of ATM in the presence of compound ([1]; PAO1, compound at 8 μM): 0.25 µg/mL | MIC of CAZ in the presence of compound ([1]; PAO1, compound at 8 μM): 0.25 µg/mL | MIC of IPM in the presence of compound ([1]; PAO1, compound at 8 μM): 1 µg/mL | resistant isolates in which CLSI breakpoint was attained for aztreonam ([1]; compound at 8 μM): eleven out of thirteen | resistant isolates in which CLSI breakpoint was attained for ceftazidime ([1]; compound at 8 μM): four out of eleven | resistant isolates in which CLSI breakpoint was attained for imipenem ([1]; compound at 8 μM): five out of seventeen | MIC ([2]; PAO1 (wild-type)): >128 µg/mL | MIC ([2]; PAO200 (first column so headed)): >128 µg/mL | MIC ([2]; PAO200 (second column so headed)): >128 µg/mL

C[C@@H](O)[C@H]1C(=O)N2C(C(=O)O)=C(SCCN=CN)C[C@H]12 [Imipenem, reference compound]
MIC Alone ([1]; P. aeruginosa PAO1, β-lactam antibiotic alone): 4 µg/mL | MIC of IPM alone ([1]; PA 259-96918): 64 µg/mL | MIC of IPM alone ([1]; PA 260-97103): 16 µg/mL | MIC of IPM alone ([1]; PA 262-101856): 32 µg/mL | MIC of IPM alone ([1]; PA 264-104354): 16 µg/mL | MIC of IPM alone ([1]; PA 86052): 32 µg/mL | MIC of IPM alone ([1]; PA 88949): 64 µg/mL | MIC of IPM alone ([1]; PA 91433): 8 µg/mL | MIC of IPM alone ([1]; PA 100036): 8 µg/mL | MIC of IPM alone ([1]; PA 101243): 8 µg/mL | MIC of IPM alone ([1]; PA 101885): 4 µg/mL | MIC of IPM alone ([1]; PA 107092): 64 µg/mL | MIC of IPM alone ([1]; PA 108590): 16 µg/mL | MIC of IPM alone ([1]; PA 109084): 16 µg/mL | MIC of IPM alone ([1]; PA 114228): 8 µg/mL | MIC of IPM alone ([1]; PAO1): 4 µg/mL | MIC of IPM alone ([1]; PAO200 (efflux-deficient)): 4 µg/mL | MIC of IPM alone ([1]; PAO750 (efflux-deficient)): 4 µg/mL
